Results from US20090004185A1, “AMINO-SUBSTITUTED QUINAZOLINE DERIVATIVES AS INHIBITORS OF BETA-CATENIN/TCF-4 PATHWAY AND CANCER TREATMENT AGENTS” (WYETH, priority 2007, published 2009).

Assays:
β-catenin/Tcf-4 = test: cells; assay type: cell-based; details: Homo sapiens, 24 hours of incubation with compound, ratio Firefly/Renilla luciferase
How it was run: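 SW480-derived lines with integrated reporters (Tcf-4-driven firefly luciferase; SV40 firefly as specificity control; SV40 Renilla for cell number/toxicity), treated 24 hours with titrated compounds, final 0.316% DMSO. Dual-luciferase read-out; firefly/Renilla ratio as % of control, duplicate plates, IC50 (nM) from curve fit.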

SV40-Luc = SV40-Luc control luciferase reporter assay, SV 5A8 cell line (SV40-Luc and SV40-R-Luc), control for non-specific inhibitors; assay type: cell-based, human; details: Homo sapiens, SV5A8, 24 h, SV 5A8 cells derived from SW480; 24 hours of incubation with compound; ratio Firefly/Renilla luciferase
How it was run: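 SW480-derived lines with integrated reporters: SV 5A8 (SV40-Luc + SV40-R-Luc), Tcf 33.13 and Tcf 22C11 (Tcf-4-Luc + SV40-R-Luc). Compounds titrated onto cells for 24 h, final DMSO 0.316%. Firefly and Renilla luminescence read by dual-luciferase; firefly/Renilla ratio as % of control fitted for IC50.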

[1] = SW480, 24 h, Tcf 33.13 cells derived from SW480
[2] = Tcf22C11, 24 h, Tcf 22C11 cells derived from SW480

Row | Compound | IC50 (β-catenin/Tcf-4; [1]) | IC50 (β-catenin/Tcf-4; [2]) | melting point | IC50 (SV40-Luc)
1 | CNc1nc(NCc2ccc(NC(=O)C3CCN(Cc4ccccc4)CC3)cc2)c2ccc(C)cc2n1 [Example 130, 1-benzyl-N-[4-({[7-methyl-2-(methylamino)quinazolin-4-yl]amino}methyl)phenyl]piperidine-4-carboxamide] | 699 nM | 798 nM | 128 °C | > 2350 nM
2 | CCNc1nc(NCc2ccc(NC(=O)C3CCN(Cc4ccccc4)CC3)cc2)c2ccc(C)cc2n1 [Example 132, 1-benzyl-N-[4-({[2-(ethylamino)-7-methylquinazolin-4-yl]amino}methyl)phenyl]piperidine-4-carboxamide] | 1140 nM | 1390 nM | 55 °C | > 2150 nM
3 | Cc1ccc2c(NCc3ccc(NC(=O)C4CCN(Cc5ccccc5)CC4)cc3)nc(N3CCCCCC3)nc2c1 [Example 131, N-(4-{[(2-azepan-1-yl-7-methylquinazolin-4-yl)amino]methyl}phenyl)-1-benzylpiperidine-4-carboxamide] | 966 nM | 1040 nM | 66 °C | > 7870 nM
